Data: US11130769B2 (Prelude Therapeutics Incorporated, priority 2018, dated 2021)
“And” between values parts separate entries of the source, which are not always exact repeats. Identical values can stand only once. Like-named read-outs stand apart in the source and are kept apart here.

Key:
H929 cells = assay: Cell viability assay (H929 10 FBS); type: cell-based; details: Homo sapiens, NCI-H929, 24 hours, read-out: H929_10FBS IC50
Method in brief: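 ATP-based luminescence (CellTiter-Glo or ATPlite 1 Step, 30-60 min at RT) gauged viability of H929 myeloma cells after 24 h compound treatment at 37 °C. Cells plated at 4000 per well in 10% FBS RPMI 1640 supplemented with pyruvate, HEPES and glucose.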

MCL-1 = MCL-1 (Homo sapiens (Human), UniProt Q07820); assay: Cell free Mcl-1:Bim affinity assay (fluorescence polarization competition); type: binding; details: 15 nM MCL-1, 5 nM FITC-Bim, 1 hour at room temperature; class symbols; read-out: BIM_Ki
Method in brief: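 Fluorescence polarization competition: 10-point 3-fold compound dilutions displaced 5 nM FITC-Bim from 15 nM MCL-1 over 1 h at room temperature. Ki was derived from the fitted IC50 using the Nikolovska-Coleska equation, with percent inhibition normalized to DMSO and positive controls.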

[1] = not given; remark: listed apart in the source
[2] = from C=CC(C)OC(C)(C)C(=O)NS(=O)(=O)c1ccc2c(c1)N(C[C@@H]1CC[C@H]1[C@@H](O)C=C)C[C@@]1(CCCc3cc(Cl)ccc31)CO2, rcm bond, 16-membered ring, Zhan catalyst, DCE, 2.1 mM, 45.0 °C, 2.0 h
[3] = from C=CCN(C(=O)OC(C)(C)C)[C@H](C)C(=O)NS(=O)(=O)c1ccc2c(c1)N(C[C@@H]1CC[C@H]1[C@@H](O)C=C)C[C@@]1(CCCc3cc(Cl)ccc31)CO2, rcm bond, 16-membered ring, Zhan Catalyst 1B, DCE, 1.8 mM, 40.0 °C, 3.0 h

Sequence of MCL-1 (Q07820 whole entry): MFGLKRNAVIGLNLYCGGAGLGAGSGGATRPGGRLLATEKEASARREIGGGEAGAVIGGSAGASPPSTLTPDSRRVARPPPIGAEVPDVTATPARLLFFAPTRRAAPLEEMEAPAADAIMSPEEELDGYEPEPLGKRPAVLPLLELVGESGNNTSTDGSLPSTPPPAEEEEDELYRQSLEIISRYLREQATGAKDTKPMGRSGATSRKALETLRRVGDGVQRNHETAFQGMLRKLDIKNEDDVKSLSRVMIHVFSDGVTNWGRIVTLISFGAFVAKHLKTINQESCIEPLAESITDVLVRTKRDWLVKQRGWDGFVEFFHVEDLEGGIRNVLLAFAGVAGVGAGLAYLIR

SMILES: C[C@H]1C(=O)NS(=O)(=O)c2ccc3c(c2)N(C[C@@H]2CC[C@H]2COCC(=O)N1C)C[C@@]1(CCCc2cc(Cl)ccc21)CO3 [Example 196, (3R,6R,12S,22S)-6′-Chloro-11,12-dimethyl-15,15-dioxo-spiro[8,20-dioxa-15-thia-1,11,14-triazatetracyclo[14.7.2.03,6.019,24]pentacosa-16,18,24-triene-22,1′-tetralin]-10,13-dione]
- IC50 (H929 cells): > 1000 nM
- ring closure, yield after HPLC (from CN[C@@H](C)C(=O)NS(=O)(=O)c1ccc2c(c1)N(C[C@@H]1CC[C@H]1COCC(=O)O)C[C@@]1(CCCc3cc(Cl)ccc31)CO2, amide bond, 16-membered ring, HATU/DIEA, DMF, 20.0 mM, 20.0 °C, 1.0 h): 24.6%
- Ki (MCL-1): 1 to 100 nM

SMILES: O=C1NS(=O)(=O)c2ccc3c(c2)N(C[C@@H]2CC[C@H]2[C@@H](O)C=CCOC12CCC2)C[C@@]1(CCCc2cc(Cl)ccc21)CO3
- ring closure, isolated yield ([1]; from C=CCOC1(C(=O)NS(=O)(=O)c2ccc3c(c2)N(C[C@@H]2CC[C@H]2[C@@H](O)C=C)C[C@@]2(CCCc4cc(Cl)ccc42)CO3)CCC1, rcm bond, 16-membered ring, Hoveyda-Grubbs II, DCE, 1.46 mM, 40.0 °C, 2.0 h): 66.3%

SMILES: CC1/C=C/[C@H](O)[C@@H]2CC[C@H]2CN2C[C@@]3(CCCc4cc(Cl)ccc43)COc3ccc(cc32)S(=O)(=O)NC(=O)C(C)(C)O1 (stereo partly drawn)
- ring closure, isolated yield [1, 2]: 62.4%

SMILES: CC(C)(C)OC(=O)N1CC=C[C@H](O)[C@@H]2CC[C@H]2CN2C[C@@]3(CCCc4cc(Cl)ccc43)COc3ccc(cc32)S(=O)(=O)NC(=O)C12CCC2
- ring closure, isolated yield ([1]; from C=CCN(C(=O)OC(C)(C)C)C1(C(=O)NS(=O)(=O)c2ccc3c(c2)N(C[C@@H]2CC[C@H]2[C@@H](O)C=C)C[C@@]2(CCCc4cc(Cl)ccc42)CO3)CCC1, rcm bond, 16-membered ring, Zhan Catalyst II (resin supported), DCE, 1.0 mM, 60.0 °C, 3.0 h): 93%

SMILES: C[C@@H]1C(=O)NS(=O)(=O)c2ccc3c(c2)N(C[C@@H]2CC[C@H]2[C@@H](O)C=CCN1C(=O)OC(C)(C)C)C[C@@]1(CCCc2cc(Cl)ccc21)CO3
- ring closure, isolated yield [1, 3]: 36%

SMILES: CN1CCOC(C)(C)C(=O)NS(=O)(=O)c2ccc3c(c2)N(C[C@@H]2CC[C@H]2C1=O)C[C@@]1(CCCc2cc(Cl)ccc21)CO3 [Example 110, (3R,6R,22S)-6′-Chloro-8,12,12-trimethyl-15,15-dioxo-spiro[11,20-dioxa-thia-1,8,14-triazatetracyclo[14.7.2.03,6.019,24]pentacosa-16(25),17,19(24)-triene-22,1′-tetralin]-7,13-dione]
- IC50 (H929 cells): > 1000 nM
- ring closure, yield after HPLC (from CNCCOC(C)(C)C(=O)NS(=O)(=O)c1ccc2c(c1)N(C[C@@H]1CC[C@H]1C(=O)O)C[C@@]1(CCCc3cc(Cl)ccc31)CO2, amide bond, 16-membered ring, HATU/DIEA, DMF, 6.0 mM, 20.0 °C, 1.0 h): 25%
- Ki (MCL-1): 1 to 100 nM

SMILES: COC(=O)N[C@@H]1/C=C/COC(C)(C)C(=O)NS(=O)(=O)c2ccc3c(c2)N(C[C@@H]2CC[C@H]21)C[C@@]1(CCCc2cc(Cl)ccc21)CO3 [Example 251, Methyl N-[(3R,6R,7R,8E,22S)-6′-Chloro-12,12-dimethyl-13,15,15-trioxo-spiro[11,20-dioxa-15-thia-1,14-diazatetracyclo[14.7.2.03,6.019,24]pentacosa-8,16(25),17,19(24)-tetraene-22,1′-tetralin]-7-yl]carbamate]
- IC50 (H929 cells): > 1000 nM
- ring closure, yield after HPLC (from C=CCOC(C)(C)C(=O)NS(=O)(=O)c1ccc2c(c1)N(C[C@@H]1CC[C@H]1[C@@H](C=C)NC(=O)OC)C[C@@]1(CCCc3cc(Cl)ccc31)CO2, rcm bond, 16-membered ring, Hoveyda-Grubbs II, DCE, 1.17 mM, 40.0 °C): 18.4%
- Ki (MCL-1): 1 to 100 nM

SMILES: CO[C@@H]1C=CCN(C(=O)OC(C)(C)C)CC2(CCC2)C(=O)NS(=O)(=O)c2ccc3c(c2)N(C[C@@H]2CC[C@H]21)C[C@@]1(CCCc2cc(Cl)ccc21)CO3
- ring closure, isolated yield ([1]; from C=CCN(CC1(C(=O)NS(=O)(=O)c2ccc3c(c2)N(C[C@@H]2CC[C@H]2[C@@H](C=C)OC)C[C@@]2(CCCc4cc(Cl)ccc42)CO3)CCC1)C(=O)OC(C)(C)C, rcm bond, 17-membered ring, Hoveyda-Grubbs II, DCE, 2.6 mM, 16.0 h): 80%

SMILES: CO[C@@H]1/C=C/CCNC(=O)NS(=O)(=O)c2ccc3c(c2)N(C[C@@H]2CC[C@H]21)C[C@@]1(CCCc2cc(Cl)ccc21)CO3 [Example 106, (3R,6R,7R,8E,22S)-6′-Chloro-7-methoxy-15,15-dioxo-spiro[20-oxa-15-thia-1,12,14-triazatetracyclo[14.7.2.03,6.019,24]pentacosa-8,16,18,24-tetraene-22,1′-tetralin]-13-one]
- IC50 (H929 cells): < 1000 nM
- ring closure, yield after HPLC (from C=CCCNC(=O)NS(=O)(=O)c1ccc2c(c1)N(C[C@@H]1CC[C@H]1[C@@H](C=C)OC)C[C@@]1(CCCc3cc(Cl)ccc31)CO2, rcm bond, 16-membered ring, Hoveyda-Grubbs II, DCE, 1.5 mM, 80.0 °C, 16.0 h): 43%
- Ki (MCL-1): 1 to 100 nM

SMILES: O=C1Cc2cncc(c2)OC[C@@H]2CC[C@H]2CN2C[C@@]3(CCCc4cc(Cl)ccc43)COc3ccc(cc32)S(=O)(=O)N1 [Example 104, (3R,6R,24S)-6′-Chloro-17,17-dioxo-spiro[8,22-dioxa-17-thia-1,11,16-triazapentacyclo[16.7.2.19,13.03,6.021,26]octacosa-9(28),10,12,18(27),19,21(26)-hexaene-24,1′-tetralin]-15-one]
- ring closure, isolated yield ([1]; from NS(=O)(=O)c1ccc2c(c1)N(C[C@@H]1CC[C@H]1COc1cncc(CC(=O)O)c1)C[C@@]1(CCCc3cc(Cl)ccc31)CO2, amide bond, 16-membered ring, EDCI/DMAP, DCM/DMF 9:1, 12.0 mM, 16.0 h): 28%
- IC50 (H929 cells): > 1000 nM
- Ki (MCL-1): < 1 nM

SMILES: CO[C@@H]1C=CCNC(=O)NS(=O)(=O)c2ccc3c(c2)N(C[C@@H]2CC[C@H]21)C[C@@]1(CCCc2cc(Cl)ccc21)CO3
- ring closure, yield after HPLC (from C=CCNC(=O)NS(=O)(=O)c1ccc2c(c1)N(C[C@@H]1CC[C@H]1[C@@H](C=C)OC)C[C@@]1(CCCc3cc(Cl)ccc31)CO2, rcm bond, 15-membered ring, Hoveyda-Grubbs II, DCE, 1.0 mM, 80.0 °C, 16.0 h): 7.2% and 31%

SMILES: CC1(C)OC/C=C/[C@](C)(O)[C@@H]2CC[C@H]2CN2C[C@@]3(CCCc4cc(Cl)ccc43)COc3ccc(cc32)S(=O)(=O)NC1=O
- ring closure, yield after HPLC (from C=CCOC(C)(C)C(=O)NS(=O)(=O)c1ccc2c(c1)N(C[C@@H]1CC[C@H]1[C@@](C)(O)C=C)C[C@@]1(CCCc3cc(Cl)ccc31)CO2, rcm bond, 16-membered ring, Zhan catalyst, DCE, 1.6 mM, 45.0 °C, 2.0 h): 3.3%

SMILES: C[C@@H]1C(=O)NS(=O)(=O)c2ccc3c(c2)N(C[C@@H]2CC[C@H]2[C@@H](O)/C=C/CN1C(=O)OC(C)(C)C)C[C@@]1(CCCc2cc(Cl)ccc21)CO3
- ring closure, isolated yield [1, 3]: 44%

SMILES: O=C1CC/C=C/COC[C@@H]2CC[C@H]2CN2C[C@@]3(CCCc4cc(Cl)ccc43)COc3ccc(cc32)S(=O)(=O)N1 [Example 99, (3R,6R,10E,23S)-6′-Chloro-16,16-dioxo-spiro[8,21-dioxa-16-thia-1,15-diazatetracyclo[15.7.2.03,6.020,25]hexacosa-10,17(26),18,20(25)-tetraene-23,1′-tetralin]-14-one]
- ring closure, isolated yield ([1]; from C=CCCC(=O)NS(=O)(=O)c1ccc2c(c1)N(C[C@@H]1CC[C@H]1COCC=C)C[C@@]1(CCCc3cc(Cl)ccc31)CO2, rcm bond, 17-membered ring, Hoveyda-Grubbs II, DCM, 16.7 mM, 24.0 h): 51%
- IC50 (H929 cells): > 1000 nM
- Ki (MCL-1): 1 to 100 nM

SMILES: CC1/C=C\[C@H](O)[C@@H]2CC[C@H]2CN2C[C@@]3(CCCc4cc(Cl)ccc43)COc3ccc(cc32)S(=O)(=O)NC(=O)C(C)(C)O1 (stereo partly drawn)
- ring closure, isolated yield [1, 2]: 15.2%

SMILES: CN(C(=O)O[C@H]1/C=C/COC2(CCC2)C(=O)NS(=O)(=O)c2ccc3c(c2)N(C[C@@H]2CC[C@H]21)C[C@@]1(CCCc2cc(Cl)ccc21)CO3)C1COC1 [Example 235, [(3R,6R,7S,8E,22S)-6′-Chloro-12,12-(1,3-propylene)-13,15,15-trioxo-spiro[11,20-dioxa-15-thia-1,14-diazatetracyclo[14.7.2.03,6.019,24]pentacosa-8,16,18,24-tetraene-22,1′-tetralin]-7-yl] N-methyl-N-(oxetan-3-yl)carbamate]
- IC50 (H929 cells): < 500 nM
- Ki (MCL-1): < 1 nM

SMILES: CC1(C)OC/C=C/[C@H](OCCN2CC[C@@H](F)C2)[C@@H]2CC[C@H]2CN2C[C@@]3(CCCc4cc(Cl)ccc43)COc3ccc(cc32)S(=O)(=O)NC1=O [Example 264, (3R,6R,7S,8E,22S)-6′-Chloro-7-[2-[(3R)-3-fluoropyrrolidin-1-yl]ethoxy]-12,12-dimethyl-15,15-dioxo-spiro[11,20-dioxa-15-thia-1,14-diazatetracyclo[14.7.2.03,6.019,24]pentacosa-8,16,18,24-tetraene-22,1′-tetralin]-13-one]
- IC50 (H929 cells): < 500 nM
- Ki (MCL-1): < 1 nM

SMILES: CC1(C)OC/C=C/[C@H](OCC(=O)N[C@@H]2CCOC2)[C@@H]2CC[C@H]2CN2C[C@@]3(CCCc4cc(Cl)ccc43)COc3ccc(cc32)S(=O)(=O)NC1=O [Example 284, 2-[(3R,6R,7S,8E,22S)-6′-Chloro-12,12-dimethyl-13,15,15-trioxo-spiro[11,20-dioxa-15λ6-thia-1,14-diazatetracyclo[14.7.2.03,6.019,24]pentacosa-8,16,18,24-tetraene-22,1′-tetralin]-7-yl]oxy-N-[(3R)-tetrahydrofuran-3-yl]acetamide]
- IC50 (H929 cells): < 500 nM
- Ki (MCL-1): < 1 nM
